IC50 data for 30 compounds are collected here from patent US20250346593A1, “IMIDAZO(1,2-1)PYRIDINE DERIVATIVES AS RIPK2 INHIBITORS” (Interline Therapeutics, Inc., priority 2022, published 2025).

The test system of test [1] is NF-κB pathway (SEAP) in THP1-Dual cells. Description: THP-1 Dual cell SEAP assay (L18-MDP stimulated). The test is classed as cell-based. As to conditions: Homo sapiens, THP1-Dual, read-out: NFkB THP1 IC50.
The target in test [2] is GST-RIPK2 fusion protein (human RIPK2 amino acids 1-310) (Homo sapiens (Human), UniProt O43353). Description: RIPK2 binding competition assay (TR-FRET, Tracer 199). Background: TR-FRET usually uses a lanthanide donor and a delayed reading to cut background.
Sequence of GST-RIPK2 fusion protein (human RIPK2 amino acids 1-310) (O43353 1-310): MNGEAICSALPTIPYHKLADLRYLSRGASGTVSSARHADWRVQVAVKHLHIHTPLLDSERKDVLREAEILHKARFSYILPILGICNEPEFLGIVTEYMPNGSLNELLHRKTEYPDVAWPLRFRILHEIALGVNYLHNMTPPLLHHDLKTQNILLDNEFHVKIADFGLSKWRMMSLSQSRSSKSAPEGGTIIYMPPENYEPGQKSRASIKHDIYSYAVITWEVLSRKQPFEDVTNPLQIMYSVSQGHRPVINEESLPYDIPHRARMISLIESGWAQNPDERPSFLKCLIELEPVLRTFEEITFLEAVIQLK
[3] abbreviates: read-out: RIPK2 IC50, RIPK2 binding competition assay.

Read-outs that look alike come from different tables or passages of the source.

For orientation: IC50 means the concentration that gives 50% inhibition.

As for `CCCS(=O)(=O)Nc1cc(-c2cnc3cc(OC)c(S(=O)(=O)C(C)(C)C)cn23)cc(F)n1` [Example 304, N-(4-(6-(tert-butylsulfonyl)-7-methoxyimidazo[1,2-a]pyridin-3-yl)-6-fluoropyridin-2-yl)propane-1-sulfonamide], the 50% inhibitory concentration (IC50) in test [1] is above 1000 nM; in test [2] (setting [3]), above 20 nM.
Turning to `CCCS(=O)(=O)N(C)c1cc(-c2cnc3cc(OC)c(S(=O)(=O)C(C)(C)C)cn23)cc(OC)c1C` [Example 325, N-(5-(6-(tert-butylsulfonyl)-7-methoxyimidazo[1,2-a]pyridin-3-yl)-3-methoxy-2-methylphenyl)-N-methylpropane-1-sulfonamide], the IC50 was above 1000 nM in test [1] and above 20 nM in test [2] (setting [3]).
Consider `COc1cc2ncc(-c3ccnc(NCCCO)c3)n2cc1S(=O)(=O)C(C)(C)C` [Example 247, 3-({4-[7-methoxy-6-(2-methylpropane-2-sulfonyl)imidazo[1,2-a]pyridin-3-yl]pyridin-2-yl}amino)propan-1-ol], for which the IC50 in test [1] was below 50 nM; in test [2], 2.5 to 20 nM.
For `CCOc1cc2ncc(-c3cc(F)nc(NCCCO)c3)n2cc1C1(F)CCN(C)CC1` [Example 242, 3-({4-[7-ethoxy-6-(4-fluoro-1-methylpiperidin-4-yl)imidazo[1,2-a]pyridin-3-yl]-6-fluoropyridin-2-yl}amino)propan-1-ol], the IC50 was below 50 nM in test [1] and below 1 nM in test [2] (setting [3]).
`COc1cc2ncc(-c3cc(F)nc(NC[C@H]4CCNC(=O)C4)c3)n2cc1S(=O)(=O)C(C)(C)C` (single isomer, unassigned) [Example 239, (4R or S)-4-[({6-fluoro-4-[7-methoxy-6-(2-methylpropane-2-sulfonyl)imidazo[1,2-a]pyridin-3-yl]pyridin-2-yl}amino)methyl]pi peridin-2-one]: the results for the IC50 in test [1] and in test [2] were below 50 nM and below 1 nM, respectively.
For the compound `COc1cc2ncc(-c3cccc(S(C)(=O)=O)c3)n2cc1S(=O)(=O)C(C)(C)C` [Example 151, 6-(tert-butylsulfonyl)-7-methoxy-3-(3-(methylsulfonyl)phenyl) imidazo[1,2-a]pyridine], the IC50 in test [1] was above 1000 nM; in test [2] (setting [3]) it was above 20 nM.
The matching figures for `COc1cc2ncc(-c3ccc(N)c(F)c3F)n2cc1S(=O)(=O)C(C)(C)C` [Example 83, 4-(6-(tert-butylsulfonyl)-7-methoxyimidazo[1,2-a]pyridin-3-yl)-2,3-difluoroaniline]: above 1000 nM and above 20 nM.
Consider `COc1cc2ncc(-c3cnn(CCO)c3)n2cc1S(=O)(=O)C(C)(C)C` [Example 324, 2-(4-(6-(tert-butylsulfonyl)-7-methoxyimidazo[1,2-a]pyridin-3-yl)-1H-pyrazol-1-yl)ethan-1-ol], for which the IC50 in test [1] is above 1000 nM; in test [2] (setting [3]), above 20 nM.
The matching figures for `CCCS(=O)(=O)Nc1cncc(-c2cnc3cc(OC)c(S(=O)(=O)C(C)(C)C)cn23)c1` [Example 254]: above 1000 nM and above 20 nM.
As for `CCCS(=O)(=O)Nc1cc(-c2cnc3cc(OC)c(S(=O)(=O)C(C)(C)C)cn23)cc(C)c1OC` [Example 268, N-(5-(6-(tert-butylsulfonyl)-7-methoxyimidazo[1,2-a]pyridin-3-yl)-2-methoxy-3-methylphenyl)propane-1-sulfonamide], the IC50 in test [1] fell in the range of 50 to 250 nM; in test [2], 1 to 2.5 nM.
As for `COc1cc2ncc(-c3cc(F)c(OC)c(NS(C)(=O)=O)c3)n2cc1S(=O)(=O)C(C)(C)C` [Example 272, N-(5-(6-(tert-butylsulfonyl)-7-methoxyimidazo[1,2-a]pyridin-3-yl)-3-fluoro-2-methoxyphenyl)methane-sulfonamide], the figures for the IC50 in test [1] and in test [2] were 50 to 250 nM and 1 to 2.5 nM, respectively.
With `COc1cc2ncc(-c3ccc(O)nc3)n2cc1S(=O)(=O)C(C)(C)C` [Example 150, 5-(6-(tert-butylsulfonyl)-7-methoxyimidazo[1,2-a]pyridin-3-yl)pyridin-2-ol], the results for the IC50 in test [1] and in test [2] (setting [3]) were above 1000 nM and above 20 nM, respectively.
For the compound `CCCS(=O)(=O)Nc1cc(-c2cnc3cc(OC)c(S(=O)(=O)C(C)(C)C)cn23)cc(C)c1F` [Example 290, N-(5-(6-(tert-butylsulfonyl)-7-methoxyimidazo[1,2-a]pyridin-3-yl)-2-fluoro-3-methylphenyl)propane-1-sulfonamide], the figures for the IC50 in test [1] and in test [2] were above 1000 nM and 2.5 to 20 nM, respectively.
As to `COc1cc2ncc(-c3cnc(N)c(N)c3)n2cc1S(=O)(=O)C(C)(C)C` [Example 31, 5-(6-(tert-butylsulfonyl)-7-methoxyimidazo[1,2-a]pyridin-3-yl)pyridine-2,3-diamine], the figures for the IC50 in test [1] and in test [2] (setting [3]) were above 1000 nM and above 20 nM, respectively.
Turning to `COc1cc2ncc(-c3cc(F)nc(NCCOC(F)F)c3)n2cc1S(=O)(=O)C(C)(C)C` [Example 233, 4-(6-(tert-butylsulfonyl)-7-methoxyimidazo[1,2-a]pyridin-3-yl)-N-(2-(difluoromethoxy)ethyl)-6-fluoropyridin-2-amine], the IC50 in test [1] was below 50 nM; in test [2] (setting [3]) it was below 1 nM.
The matching figures for `COc1cc2ncc(-c3cnc(N)c(OC(F)(F)F)c3)n2cc1S(=O)(=O)C(C)(C)C` [Example 88, 5-(6-(tert-butylsulfonyl)-7-methoxyimidazo[1,2-a]pyridin-3-yl)-3-(trifluoromethoxy) pyridin-2-amine]: above 1000 nM and above 20 nM.
As to `COc1cc2ncc(-c3cccc(N)c3F)n2cc1S(=O)(=O)C(C)(C)C` [Example 29, 3-(6-(tert-butylsulfonyl)-7-methoxyimidazo[1,2-a]pyridin-3-yl)-2-fluoroaniline], the IC50 in test [1] was above 1000 nM; in test [2], 2.5 to 20 nM.
Take `COc1cc2ncc(-c3cc(F)nc(N[C@H](C)CO)c3)n2cc1S(=O)(=O)C(C)(C)C` [Example 221, (2R)-2-({6-fluoro-4-[7-methoxy-6-(2-methylpropane-2-sulfonyl)imidazo[1,2-a]pyridin-3-yl]pyridin-2-yl}amino)propan-1-ol]: the results for the IC50 in test [1] and in test [2] were below 50 nM and 1 to 2.5 nM, respectively.
The matching figures for `COc1cc2ncc(-c3cc(N)c(OC)c(F)c3)n2cc1S(=O)(=O)C(C)(C)C` [Example 2, 5-(6-(tert-butylsulfonyl)-7-methoxyimidazo[1,2-a]pyridin-3-yl)-3-fluoro-2-methoxyaniline]: above 1000 nM and 2.5 to 20 nM.
Take `COc1cc2ncc(-c3cc(N)c(C)c(F)c3)n2cc1S(=O)(=O)C(C)(C)C` [Example 35, 5-(6-(tert-butylsulfonyl)-7-methoxyimidazo[1,2-a]pyridin-3-yl)-3-fluoro-2-methylaniline]: the figures for the IC50 in test [1] and in test [2] (setting [3]) were above 1000 nM and above 20 nM, respectively.
As to `COc1cc2ncc(-c3cc(N)c(OCCO)c(F)c3)n2cc1S(=O)(=O)C(C)(C)C` [Example 64, 2-(2-amino-4-(6-(tert-butylsulfonyl)-7-methoxyimidazo[1,2-a]pyridin-3-yl)-6-fluorophenoxy)ethan-1-ol], the 50% inhibitory concentration (IC50) in test [1] lay within 50 to 250 nM; in test [2], 2.5 to 20 nM.
On the same counts, the results for `COc1cc2ncc(-c3cc(F)c(N)cc3F)n2cc1S(=O)(=O)C(C)(C)C` [Example 81, 4-(6-(tert-butylsulfonyl)-7-methoxyimidazo[1,2-a]pyridin-3-yl)-2,5-difluoroaniline] are 250 to 1000 nM and 2.5 to 20 nM.
Take `CNc1cc(-c2cnc3cc(OC)c(S(=O)(=O)C(C)(C)C)cn23)cc(OC)c1OC` [Example 326, 5-(6-(tert-butylsulfonyl)-7-methoxyimidazo[1,2-a]pyridin-3-yl)-2,3-dimethoxy-N-methylaniline]: the results for the IC50 in test [1] and in test [2] were 50 to 250 nM and 1 to 2.5 nM, respectively.
Take `COc1cc2ncc(-c3cc(C)c(OC)c(Cl)n3)n2cc1S(=O)(=O)C(C)(C)C` [Example 55, 6-(tert-butylsulfonyl)-3-(6-chloro-5-methoxy-4-methylpyridin-2-yl)-7-methoxyimidazo[1,2-a]pyridine]: the IC50 in test [1] was above 1000 nM; in test [2] (setting [3]), above 20 nM.
With `COc1cn2ncc(-c3cnc(N)c(F)c3)c2cc1S(=O)(=O)C(C)(C)C` [Example 97, 5-(5-(tert-butylsulfonyl)-6-methoxypyrazolo[1,5-a]pyridin-3-yl)-3-fluoropyridin-2-amine], the IC50 lay within 250 to 1000 nM in test [1] and 2.5 to 20 nM in test [2].
Take `COc1cc2ncc(-c3ccc(N)c(OC(F)F)c3)n2cc1S(=O)(=O)C(C)(C)C` [Example 142, 4-(6-(tert-butylsulfonyl)-7-methoxyimidazo[1,2-a]pyridin-3-yl)-2-(difluoromethoxy)aniline]: the IC50 in test [1] was 250 to 1000 nM; in test [2], 2.5 to 20 nM.
In the case of `COc1cc2ncc(-c3cc(F)c(OC)c(OCCO)c3)n2cc1S(=O)(=O)C(C)(C)C` [Example 338, 2-(5-(6-(tert-butylsulfonyl)-7-methoxyimidazo[1,2-a]pyridin-3-yl)-3-fluoro-2-methoxyphenoxy)ethan-1-ol], the IC50 was above 1000 nM in test [1] and 2.5 to 20 nM in test [2].
For `COc1cc2ncc(-c3cc(NCCCO)c(=O)n(C)c3)n2cc1S(=O)(=O)C(C)(C)C` [Example 125, 5-(6-(tert-butylsulfonyl)-7-methoxyimidazo[1,2-a]pyridin-3-yl)-3-((3-hydroxypropyl)amino)-1-methylpyridin-2(1H)-one], the IC50 in test [1] was in the range of 50 to 250 nM; in test [2], 2.5 to 20 nM.
Regarding `CCCS(=O)(=O)Nc1cc(-c2cnc3cc(OC)c(S(=O)(=O)C(C)(C)C)cn23)ccc1F` [Example 291, N-(5-(6-(tert-butylsulfonyl)-7-methoxyimidazo[1,2-a]pyridin-3-yl)-2-fluorophenyl)propane-1-sulfonamide], the IC50 in test [1] lay within 250 to 1000 nM; in test [2], 2.5 to 20 nM.
The matching figures for `COc1cn2ncc(-c3cc(F)c(N)nc3F)c2cc1S(=O)(=O)C(C)(C)C` [Example 100, 5-(5-(tert-butylsulfonyl)-6-methoxypyrazolo[1,5-a]pyridin-3-yl)-3,6-difluoropyridin-2-amine]: 250 to 1000 nM and 2.5 to 20 nM.
